From PMC4579271, “Inflammatory Signaling by NOD-RIPK2 Is Inhibited by Clinically Relevant Type II Kinase Inhibitors” (Chemistry & Biology, 2015)

Assays:
[1] = test system: RIPK1 ubiquitination and IκBα degradation in THP-1 cells; assay: TUBE purification and immunoblot, TNF-stimulated THP-1 cells; type: cell-based, human; conditions: TNF treatment
Experimental: Figure 5 Inhibition of NOD2-Dependent Ubiquitination and Signaling (A–C) THP-1 cells were pre-treated with kinase inhibitors or DMSO for 30 min and stimulated with 200 ng/ml L18-MDP (A, B) or TNF (C) as indicated. At the indicated time points, cells were lysed and ubiquitinated proteins were isolated using TUBE reagent. The isolated ubiquitinated proteins and input material were analyzed by immunoblotting. See also Figure S6.
The ubiquitin conjugates were purified using GST-Tandem Ubiquitin Binding Entities (TUBE; [Fiil et al., 2013]). In brief, treated THP-1 cells (6–10 × 10^6) were washed with PBS and lysed in 400 μl of ice-cold lysis buffer containing TUBE on ice for 30 min. Cleared lysates were incubated with Glutathione Sepharose 4B resin (Amersham) with agitation at 4°C overnight. The beads were washed four times with PBS-Tween (0.1%) and the bound proteins were released by heating the beads in reducing SDS sample buffer. The samples were resolved on pre-cast gradient gels (NuPage; Life Technologies) in MOPS running buffer and subjected to immunoblotting.

[2] = test system: NOD2-dependent TNF production in primary human monocytes; assay: Flow cytometry of intracellular TNF in primary human monocytes, L18-MDP; type: cell-based
Experimental: Experimental conditions are measured in 4–5 healthy donors. […] Gray background indicates range without inhibitors. See also Figure S7.

[3] = test system: TNF production by LPS stimulation in primary human monocytes; conditions: 200 ng/ml LPS
[4] = target: T1, RIPK1 (Homo sapiens, UniProt Q13546); parameters: method as in Najjar et al., 2015; conditions: ref Najjar et al., 2015; cited from earlier work
T1 sequence (Q13546 1-671): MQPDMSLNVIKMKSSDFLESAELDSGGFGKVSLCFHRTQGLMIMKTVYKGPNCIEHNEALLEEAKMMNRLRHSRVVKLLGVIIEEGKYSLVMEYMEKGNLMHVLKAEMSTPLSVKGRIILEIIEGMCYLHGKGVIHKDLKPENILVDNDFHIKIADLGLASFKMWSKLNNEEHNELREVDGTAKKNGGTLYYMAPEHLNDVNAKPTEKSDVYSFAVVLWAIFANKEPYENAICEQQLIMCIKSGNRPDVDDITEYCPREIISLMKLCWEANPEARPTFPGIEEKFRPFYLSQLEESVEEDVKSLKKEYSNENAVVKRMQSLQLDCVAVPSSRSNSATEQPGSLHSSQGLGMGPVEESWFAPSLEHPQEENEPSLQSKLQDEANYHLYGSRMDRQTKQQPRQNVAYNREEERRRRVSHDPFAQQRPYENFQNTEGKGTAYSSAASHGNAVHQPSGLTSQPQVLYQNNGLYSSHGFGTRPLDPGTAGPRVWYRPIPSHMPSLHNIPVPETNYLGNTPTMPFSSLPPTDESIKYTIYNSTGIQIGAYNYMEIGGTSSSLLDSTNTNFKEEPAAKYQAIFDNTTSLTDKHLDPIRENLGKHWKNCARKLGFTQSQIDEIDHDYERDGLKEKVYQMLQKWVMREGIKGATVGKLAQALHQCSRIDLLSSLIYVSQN

[5] = target: RIPK3 (Homo sapiens, UniProt Q9Y572); parameters: method as in Najjar et al., 2015; conditions: ref Najjar et al., 2015; cited from earlier work
RIPK3, sequence (Q9Y572 whole entry, species assumed): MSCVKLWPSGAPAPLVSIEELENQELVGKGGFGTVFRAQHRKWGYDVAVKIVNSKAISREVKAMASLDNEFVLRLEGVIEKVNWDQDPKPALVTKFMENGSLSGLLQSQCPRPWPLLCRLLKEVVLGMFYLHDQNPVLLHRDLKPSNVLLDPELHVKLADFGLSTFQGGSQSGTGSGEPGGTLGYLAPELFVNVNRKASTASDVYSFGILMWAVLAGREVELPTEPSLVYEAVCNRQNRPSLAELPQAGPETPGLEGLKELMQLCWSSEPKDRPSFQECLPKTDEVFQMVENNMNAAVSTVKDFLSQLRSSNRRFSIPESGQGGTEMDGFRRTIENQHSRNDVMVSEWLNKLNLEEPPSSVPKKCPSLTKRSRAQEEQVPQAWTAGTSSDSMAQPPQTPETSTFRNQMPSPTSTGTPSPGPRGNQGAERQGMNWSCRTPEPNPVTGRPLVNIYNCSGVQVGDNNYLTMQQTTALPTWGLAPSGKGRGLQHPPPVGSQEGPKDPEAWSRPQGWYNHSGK

[6] = parameters: method as in Cortes et al., 2013; conditions: clinical use; ref Cortes et al., 2013; cited from earlier work
[7] = test system: RAW264.7 macrophage cells; assay: Cell viability and morphology, 24 hours; conditions: 100 nM
[8] = test system: NF-κB activation in HEKBlue cells expressing NOD2; assay: HEKBlue NF-κB-SEAP reporter activation assay, L18-MDP stimulation; conditions: Homo sapiens, HEK-Blue, 8 h, read-out: NFκB activity EC50
[9] = test system: phospho-Ser176-RIPK2 (p-RIPK2) in NOD2-expressing HEK293 cells; assay: Western blot of phospho-Ser176-RIPK2 in HEKBlue cells after L18-MDP
[10] = target: NOD2-RIPK2 interaction (Homo sapiens, UniProt O43353); assay: HA-immunoprecipitation of RIPK2 with inducible HA-NOD2 in U2OS cells; conditions: 100 nM, 24 hr
NOD2-RIPK2 interaction, sequence (O43353 whole entry): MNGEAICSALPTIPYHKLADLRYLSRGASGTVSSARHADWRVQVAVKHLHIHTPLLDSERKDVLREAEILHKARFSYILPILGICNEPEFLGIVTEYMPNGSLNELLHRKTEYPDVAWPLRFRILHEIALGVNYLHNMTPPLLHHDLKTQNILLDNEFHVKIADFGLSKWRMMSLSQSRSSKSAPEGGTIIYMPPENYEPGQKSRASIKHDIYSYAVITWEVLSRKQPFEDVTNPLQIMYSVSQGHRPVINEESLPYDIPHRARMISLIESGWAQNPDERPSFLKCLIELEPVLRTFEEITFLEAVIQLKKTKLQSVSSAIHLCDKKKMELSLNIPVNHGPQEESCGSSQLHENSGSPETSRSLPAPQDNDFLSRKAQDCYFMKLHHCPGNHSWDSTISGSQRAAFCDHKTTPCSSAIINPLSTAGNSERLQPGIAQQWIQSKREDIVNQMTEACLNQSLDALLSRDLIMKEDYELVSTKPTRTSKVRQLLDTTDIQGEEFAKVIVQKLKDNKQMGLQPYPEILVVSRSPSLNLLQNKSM
NOD2-RIPK2 interaction, sequence (Q9HC29 whole entry partner): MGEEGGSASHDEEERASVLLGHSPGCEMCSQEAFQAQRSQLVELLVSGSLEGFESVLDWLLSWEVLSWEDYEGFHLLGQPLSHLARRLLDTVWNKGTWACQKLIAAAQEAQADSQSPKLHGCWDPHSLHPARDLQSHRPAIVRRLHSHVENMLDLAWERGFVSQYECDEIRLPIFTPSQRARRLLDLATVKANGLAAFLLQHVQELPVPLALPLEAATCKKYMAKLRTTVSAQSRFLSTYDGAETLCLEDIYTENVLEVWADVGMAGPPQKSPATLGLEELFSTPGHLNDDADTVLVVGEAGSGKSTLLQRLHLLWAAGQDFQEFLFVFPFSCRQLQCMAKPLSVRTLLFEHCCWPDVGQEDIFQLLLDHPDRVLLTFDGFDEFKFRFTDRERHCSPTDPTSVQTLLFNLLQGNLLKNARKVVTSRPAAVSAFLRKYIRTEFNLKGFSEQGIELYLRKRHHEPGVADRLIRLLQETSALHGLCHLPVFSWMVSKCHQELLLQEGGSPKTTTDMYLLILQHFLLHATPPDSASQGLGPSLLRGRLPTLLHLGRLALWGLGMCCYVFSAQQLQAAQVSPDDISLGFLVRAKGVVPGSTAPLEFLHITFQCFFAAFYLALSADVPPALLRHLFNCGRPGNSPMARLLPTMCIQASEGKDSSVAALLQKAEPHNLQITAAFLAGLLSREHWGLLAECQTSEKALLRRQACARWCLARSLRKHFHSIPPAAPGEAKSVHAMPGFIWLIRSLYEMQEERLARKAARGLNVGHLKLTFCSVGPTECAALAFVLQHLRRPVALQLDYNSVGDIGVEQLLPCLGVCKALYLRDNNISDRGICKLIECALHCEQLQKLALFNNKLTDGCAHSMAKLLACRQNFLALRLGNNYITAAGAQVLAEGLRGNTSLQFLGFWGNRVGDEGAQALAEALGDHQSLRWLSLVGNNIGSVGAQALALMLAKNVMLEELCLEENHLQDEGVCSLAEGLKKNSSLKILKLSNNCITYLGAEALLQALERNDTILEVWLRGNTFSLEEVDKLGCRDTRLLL

[11] = test system: RIPK2 ubiquitination in THP-1 cells; assay: TUBE purification of ubiquitin conjugates, L18-MDP-stimulated THP-1 cells; conditions: 200 ng/ml L18-MDP

## Cc1ccc(C(=O)Nc2ccc(CN3CCN(C)CC3)c(C(F)(F)F)c2)cc1C#Cc1cnc2cccnn12 [ponatinib, 3-[2-(imidazo[1,2-b]pyridazin-3-yl)ethynyl]-4-methyl-N-{4-[(4-methylpiperazin-1-yl)methyl]-3-(trifluoromethyl)phenyl}benzamide]
[1]
  ubiquitination of RIPK1 or IκBα degradation: no obvious effects
[2]
  concentration completely abrogating NOD2-dependent TNF production: 10 nM
[3]
  concentration attenuating TNF production by LPS stimulation: 1 µM
[4]
  inhibition of RIPK1 kinase activity in necroptosis: efficient inhibitor
[5]
  inhibition of RIPK3 kinase activity in necroptosis: efficient inhibitor
[6]
  adverse events: serious adverse events including vascular thrombosis
[7]
  morphology of RAW cells: caused rounding of RAW cells
[8]
  EC50: 0.8 nM
[9]
  concentration completely blocking RIPK2 phosphorylation: 10 nM
[10]
  NOD2-RIPK2 interaction: stably maintained
[11]
  concentration completely blocking RIPK2 ubiquitination: ≥ 25 nM
  concentration reducing extent and length of ubiquitin-modified RIPK2: 5 to 10 nM
